Test results as given in patent publication US20060002922A1, “Method for preventing or treating obesity by modulating the activities of the pentose phosphate patway” (Minkon Biotechnology, Inc., priority 2004, published 2006).

Columns and labels:
[1] = test system: C57BL/6 mice fed with D12492; experiment: Diet-induced obesity in C57BL/6 mice fed high fat diet D12492, oral OT; assay type: in vivo
Procedure: D12492 is a very high fat containing diet (with 60 kcal % fat), and has been widely used to induce obesity in rodents.
A dose of 10-20 mg/kg/day of OT was administered orally to C57BL/6 mice fed with D12492. […] In contrast, the control mice developed obesity.
4 groups of C57BL/6 mice (5 mice each group) were used to test the dosage dependence of oxythiamine on weight control. The negative control was fed a regular diet, and positive group was fed a high fat diet only. Test groups were fed high fat diet and each orally administered with OT at a concentration of 2 mg/kg/day or 10 mg/kg/day.

[2] = test system: normal as well as fatty mice; experiment: Higher dosage of OT: weight loss in normal and fatty mice; assay type: in vivo
Source text: This is consistent with the result obtained from the published result of TKT haplo-insufficiency mice.

[3] = test system: liver, heart and kidney of mice hosting Ehrlich's tumor; details: 400 mg/kg/day of OT; cited from earlier work
tumors in animals = details: 100-400 mg/kg of OT; cited from earlier work

Cc1ncc(C[n+]2csc(CCO)c2C)c(=O)[nH]1 [OT, Oxythiamine]
development of diet-induced obesity ([1]; 10-20 mg/kg/day orally, C57BL/6 mice fed D12492, control mice developed obesity): Diet-induced obesity was not developed | pathological studies of OT treated mice ([1]; FIG. 1 study, high fat diet plus OT): near normal | progression of obesity development ([1]; OT as low as 2 mg/kg/day): reduce the progression of obesity development significantly | dosage dependence of prevention of weight gain ([1]; mice fed D12492, test groups 2 or 10 mg/kg/day orally): dosage dependent effects on preventing weight gain | growth rate compared to same age mice fed a standard diet ([1]; mice fed D12492 plus OT): normal growth rate | effect on body weight ([2]; 180 mg/kg/day, normal as well as fatty mice): strong effect of weight loss | fat mass ([2]; OT fed mice): Preferential reduction of fat mass | histotoxicity (signs of toxicity in liver, heart and kidney vs controls) [3]: No signs of toxicity were observed | treatment of tumors in animals (tumors in animals): successfully used to treat tumors
